Assay: Measured osmolality of ioforminol injection solution, including on dilution and after autoclaving
Format: physicochemical
Method: Isotonicity—A solution is isotonic with human blood plasma if no net water migration takes place over the blood cell membranes after mixing the solution with human blood. This means that the measured osmolality of the solution is equal to that of human blood plasma (approx. 290 mOsmol/kg water). This is the goal for any parenteral drug formulation, being more important if injection volumes are relatively large (typically >10 ml) and if injection rate is fast.
Ioforminol 320 mg I/ml injection contains […]. With a molar weight of 1522,13 Dalton, this would be 420.3 mM. This concentrated solution contains 699 g water per litre. Density is 1.357 kg/litre, thus the weight of one litre Ioforminol 320 mg I/ml injection is 1.357 kg. Water is therefore only about half of the weight. Theoretical estimation of osmolality would be 601.5 mOsmol/kg water given 420.3 mM ioforminol, no dissociation under dissolution and 699 g water as solvent.
Knowing that blood plasma osmolality is approx. 290 mOsmol/kg water, such a solution would be hypertonic by a factor 2 even without other components/solutes. Yet measured osmolality of the complete formulation of ioforminol 320 mg I/ml was around 290 mOsmol/kg water. When one subtracts the contribution to osmolality of the other components in the formulation (Tris, EDTA, NaCl and CaCl2), the net contribution of ioforminol was around 129 mOsmol/kg, not around 600 mOsmol/kg. This is approximately 22% of the expected theoretical osmolality if every ioforminol molecule would act as one hydrated particle.
This can be attributed to the very high concentration of ioforminol in the 320 mg I/ml solution. […] However, the percentage only increases to approximately 36% when the concentrated ioforminol composition was diluted more than fourfold. The result of this phenomenon is the linear correlation between ioforminol concentration, salt concentration and osmolality in the interval 70-330 mg I/ml Ioforminol.

net contribution of ioforminol to osmolality (320 mg I/ml, contribution of Tris, EDTA, NaCl and CaCl2 subtracted): around 129 mOsmol/kg
percentage of the expected theoretical osmolality (320 mg I/ml, theoretical = every ioforminol molecule acts as one hydrated particle): approximately 22%
percentage contribution to osmolality after autoclaving (121° C. for approximately 15 minutes): does not change
percentage of the expected theoretical osmolality (after more than fourfold dilution from 320 to 70 mg I/ml): approximately 36%
osmolality compared to theoretical value (aqueous solution, theoretical = one molecule acts as one hydrated particle): lower
Structure (SMILES): O=CN(CC(O)CN(C=O)c1c(I)c(C(=O)NCC(O)CO)c(I)c(C(=O)NCC(O)CO)c1I)c1c(I)c(C(=O)NCC(O)CO)c(I)c(C(=O)NCC(O)CO)c1I (centres unmarked) [ioforminol, 5-[formyl-[3-[formyl-[3,5-bis(2,3-dihydroxypropylcarbamoyl)-2,4,6-triiodophenyl]amino]-2-hydroxypropyl]amino]-N,N′-bis(2,3-dihydroxypropyl)-2,4,6-triiodobenzene-1,3-dicarboxamide]

Source: patent US20160279269A1, “METHOD AND REAGENT FOR PREPARING A DIAGNOSTIC COMPOSITION” (GE HEALTHCARE AS, priority 2013, published 2016)
